The values that follow come from patent publication US20120130129A1, “Efficient Method for Preparing Functionalized Benzosuberenes” (BAYLOR UNIVERSITY, priority 2010, published 2012).

Where two headings read alike, the source gives them in different places.

One series concerns Bovine brain tubulin. In words: Inhibition of tubulin polymerization (turbidimetric tubulin assembly). Particulars: for IC50: 10 μM tubulin, 20 min incubation, 30° C.; for Inhibition of tubulin assembly (in words): comparable to CA1, CA4. It counts as biochemical. Here is the method: Bovine brain tubulin was purified using methods previously described by Hamel (Cell Biochem. Biophys. 38:1-21 (2003)). The effect of compounds on tubulin assembly in vitro was determined by using a series of concentrations that were pre-incubated with 10 μM tubulin (1.0 mg/mL) in glutamate buffer at 30° C., followed by cooling to 0° C. After GTP was added, the samples were mixed and transferred to cuvettes at 0° C. in a recording spectrophotometer and warmed to 30° C. to initiate polymerization. Tubulin assembly was observed turbidimetrically at 350 nm. Tubulin disassembly was confirmed by cooling to 0° C. The calculated compound concentration that inhibited tubulin assembly by 50% after a 20 min incubation was defined as the IC50 value.

Series [1] concerns SK-OV-3 (ovarian). In words: Sulforhodamine B (SRB) growth inhibition assay. Particulars: Homo sapiens.
Text: (§1) Cancer cell lines were obtained from ATCC (DU-145 (prostate), SK-OV-3 (ovarian), and NCI-H460 (lung)) and maintained according to recommended conditions. Media was enriched with the recommended concentration of fetal bovine serum, as well as gentamicin and amphotericin B. The National Cancer Institute's standard SRB assay assessed cancer cell line growth inhibition, as previously described as the GI50, or the drug concentrations calculated to cause a 50% reduction in net protein increase relative to untreated cells (Vichai and Kirtikara, Nat. Protocols 1:1112-1116 (2006); Monks, et al., J. Natl. Cancer Inst. 83″757-766 (1991); Sites, et al., J. Nat. Prod. 71:313-320 (2008)). Results reported are averages of at least three separate experiments, each of which was carried out in triplicate.
Series [2] relates to human cancer cell lines. Briefly: Cytotoxicity against human cancer cell lines (SRB assay, whole panel). In kind it is cell-based. As to conditions: each cell line of Table 2. (In general: In SRB staining, fixed cells bind dye roughly in proportion to their protein.)
Text: as §1
Series [3] concerns DU-145 (prostate). In words: Sulforhodamine B (SRB) growth inhibition assay. Particulars: for GI50: Homo sapiens, DU-145, read-out: Cytotoxicity (GI50) DU-145.
Text: as §1
In series [4] the test system is NCI-H460 (lung). Briefly: Sulforhodamine B (SRB) growth inhibition assay. Particulars: for GI50: Homo sapiens, NCI-H460, read-out: Cytotoxicity (GI50) NCI-H460.
Text: as §1
In series [5] the test system is NCI-H460 (lung).
Text: as §1
Series [6] concerns SK-OV-3 (ovarian).
Text: as §1
For series [7], the system named is DU-145 (prostate).
Text: as §1
In series [8] the test system is human cancer cell lines. Particulars: previous studies, U.S. Pat. No. 7,429,681; cited from earlier work.
Where [9] appears, read: SK-OV-3, read-out: Cytotoxicity (GI50) SK-OV-3.

For the compound `COc1ccc(/C=C\c2cc(OC)c(OC)c(OC)c2)c(O)c1O` [CA1, Combretastatin A-1, reference compound], inhibition in the series with Bovine brain tubulin was half-maximal at 1900 nM (IC50).
For the compound `COc1cc(C2=CCCCc3c2ccc(OC)c3[N+](=O)[O-])cc(OC)c1OC` [Compound 5, 1-Nitro-2-Methoxy-5-(3′,4′,5′-trimethoxyphenyl)-6,7,8,9-tetrahydro-5H-cyclobenzohepta-6-ene], the GI50 (in general, the concentration at which growth is held to half of that of the control) in the series with SK-OV-3 (ovarian) [1] (setting [9]) came to 152 nM; in the series on DU-145 (prostate) [3], 211 nM; in the series on NCI-H460 (lung) [4], 666 nM. Besides, the “Cytotoxicity compared with comparison compounds (in words)” value with human cancer cell lines [2] is on record as “significantly less cytotoxic than any of the comparison compounds”. Besides, the IC50 (usually the midpoint of a concentration-inhibition curve) in the series on Bovine brain tubulin was 2500 nM. Besides, in the series with Bovine brain tubulin, the “Inhibition of tubulin assembly (in words)” value (“Inhibition” below) is listed as “potent inhibitors of tubulin assembly”.
For `COc1ccc2c(c1N)CCCC=C2c1cc(OC)c(OC)c(OC)c1` [Compound 6, 2-Methoxy-5-(3′,4′,5′-trimethoxyphenyl)-6,7,8,9-tetrahydro-5H-cyclobenzohepta-6-ene-1-amine], the GI50 in the series on SK-OV-3 (ovarian) [1] (setting [9]) was found to be 0.0329 nM; in the series with SK-OV-3 (ovarian) [1] (SK-OV-3, read-out: GI50 against ovarian cancer), 0.0329 nM; in the series with DU-145 (prostate) [3], 1.11 nM; in the series with NCI-H460 (lung) [4], 4.69 nM. Besides, in the series with human cancer cell lines [2], the “Cytotoxicity compared with comparison compounds (in words)” value was “more active against each cell line than the natural products CA4 and CA1”. Besides, the concentration for half-maximal inhibition (IC50) in the series with Bovine brain tubulin was determined as 1200 nM. Also, the “Inhibition” value in the series with Bovine brain tubulin is reported as “potent inhibitors of tubulin assembly”. Further, the “Cytotoxicity (in words)” value in the series on DU-145 (prostate) [3] (prostate cell line) and in the series on NCI-H460 (lung) [4] (non-small cell lung cell line) was “strongly cytotoxic” throughout.
Turning to `COc1cc2c(c(O)c1O)CCCC=C2c1cc(OC)c(OC)c(OC)c1` [Compound 13, 3-Methoxy-5-(3′,4′,5′-trimethoxyphenyl)-6,7,8,9-tetrahydro-5H-cyclobenzohepta-6-ene-1,2-diol], the GI50 with NCI-H460 (lung) [5] turned out to be 20900 nM; with SK-OV-3 (ovarian) [6], 22700 nM; in the series on DU-145 (prostate) [7], 20500 nM.
Take `COc1cc2c(c(OC)c1O)CCCC=C2c1cc(OC)c(OC)c(OC)c1` [Compound 16, 1,3-Dimethoxy-5-(3′,4′,5′-trimethoxyphenyl)-6,7,8,9-tetrahydro-5H-cyclobenzohepta-6-ene-2-ol]: the GI50 with NCI-H460 (lung) [5] was found to be 18000 nM; with SK-OV-3 (ovarian) [6], 7130 nM; with DU-145 (prostate) [7] it was 15700 nM.
In the case of `COc1ccc2c(c1O)CCCC=C2c1cc(OC)c(OC)c(OC)c1` [Compound 23, 2-Methoxy-5-(3′,4′,5′-trimethoxyphenyl)-6,7,8,9-tetrahydro-5H-cyclobenzohepta-6-ene-1-ol], the GI50 in the series on SK-OV-3 (ovarian) [1] (setting [9]) was found to be 0.0242 nM; in the series with DU-145 (prostate) [3], 0.00242 nM; with NCI-H460 (lung) [4], 0.00192 nM. In the series with Bovine brain tubulin, this compound gave an IC50 of 1700 nM. In addition, the “Inhibition” value with Bovine brain tubulin is listed as “potent inhibitors of tubulin assembly”. Also, the “Cytotoxicity against human cancer cell lines (in words)” value with human cancer cell lines [8] is listed as “picomolar cytotoxicity”.
Consider `COc1cc(C2=CCCCc3c2ccc(OC)c3OP(=O)(O)O)cc(OC)c1OC` [Compound 24, Disodium 2-Methoxy-5-(3′,4′,5′-trimethoxyphenyl)-6,7,8,9-tetrahydro-5H-cyclobenzohepta-6-ene-1-phosphate], for which the GI50 was determined as 26.6 nM in the series with NCI-H460 (lung) [5], 5.94 nM in the series with SK-OV-3 (ovarian) [6] and 9.66 nM in the series with DU-145 (prostate) [7].
For `COc1cc(C2=CCCCc3c2cc(OC)c(OC)c3O)cc(OC)c1OC` [Compound 36, 1-Hydroxy-2,3-dimethoxy-5-(3′,4′,5′-trimethoxyphenyl)-6,7,8,9-tetrahydro-5H-cyclobenzoheptan-5-ene], the figures for the GI50 in the series with NCI-H460 (lung) [5], with SK-OV-3 (ovarian) [6] and in the series with DU-145 (prostate) [7] were 25900 nM, 18100 nM and 16300 nM, respectively.
For the compound `COc1ccc2c(c1F)CCCC=C2c1cc(OC)c(OC)c(OC)c1` [Compound 41, 1-Fluoro-2-methoxy-5-(3′,4′,5′-trimethoxyphenyl)-6,7,8,9-tetrahydro-5H-cyclobenzoheptan-5-ene], the GI50 with NCI-H460 (lung) [5] came out at 4 nM; with SK-OV-3 (ovarian) [6], 0.00724 nM; in the series on DU-145 (prostate) [7], 2.87 nM.
In the case of `COc1ccc2c(c1Cl)CCCC=C2c1cc(OC)c(OC)c(OC)c1` [Compound 46, 1-Chloro-2-methoxy-5-(3′,4′,5′-trimethoxyphenyl)-6,7,8,9-tetrahydro-5H-cyclobenzoheptan-5-ene], the values for the GI50 in the series on NCI-H460 (lung) [5], in the series with SK-OV-3 (ovarian) [6] and with DU-145 (prostate) [7] were 83.2 nM, 39.9 nM and 108 nM, respectively.
Turning to `COc1ccc2c(c1)CCCC=C2c1cc(OC)c(OC)c(OC)c1` [Compound 50, 2-Methoxy-5-(3′,4′,5′-trimethoxyphenyl)-6,7,8,9-tetrahydro-5H-cyclobenzoheptan-5-ene], the GI50 with NCI-H460 (lung) [5] worked out at 51 nM; in the series on SK-OV-3 (ovarian) [6] it was 36.6 nM; in the series on DU-145 (prostate) [7], 26.1 nM.
The matching figures for `COc1cc(C2=CCCCc3c2ccc(OC)c3OC)cc(OC)c1OC` [Compound 58, 1,2-Dimethoxy-5-(3′,4′,5′-trimethoxyphenyl)-6,7,8,9-tetrahydro-5H-cyclobenzohepta-6-ene]: 479 nM, 641 nM and 516 nM.
For the compound `COc1cc(C2(O)CCCCc3c2ccc(O)c3O)cc(OC)c1OC` (stereo not shown) [Compound 63, 1,2-Dihydroxy-5-(3′,4′,5′-trimethoxyphenyl)-6,7,8,9-tetrahydro-5H-cyclobenzoheptan-5-ol], the results for the GI50 with NCI-H460 (lung) [5], in the series with SK-OV-3 (ovarian) [6] and with DU-145 (prostate) [7] were 410 nM, 341 nM and 783 nM, respectively.
On the same counts, the results for `COc1cc(C2=CCCCc3ccccc32)cc(OC)c1OC` [Compound 65, 5-(3′,4′,5′-trimethoxyphenyl)-6,7,8,9-tetrahydro-5H-cyclobenzohepta-5-ene] are 32500 nM, 19100 nM and 22000 nM.
In the case of `COc1cc(C2=CCCCc3c2ccc(OC)c3O)cc(OC)c1O` [Compound 71, 9-(4′-Hydroxy-3′,5′-dimethoxyphenyl)-3-methoxy-6,7-dihydro-5H-benzo[7]annulen-4-ol], the GI50 in the series with SK-OV-3 (ovarian) [1] (setting [9]) was determined as 378 nM; with DU-145 (prostate) [3] it was 579 nM; in the series on NCI-H460 (lung) [4], 439 nM.
